Assay [1] relates to Staphylococcus aureus. As to the kind of experiment: Minimal synergizing concentration required to inhibit growth of Staphylococcus aureus strain 447 in the presence of 4 ug/mL of methicillin. In kind it is functional.
For assay [2], the system named is Staphylococcus aureus. As to the kind of experiment: Ability of 40 ug to enlarge the zone of inhibition produced by 100 microg of methicillin in disk assay using Staphylococcus aureus strain 447; synergy. In kind it is functional, organism-based.
For assay [3], the system named is Staphylococcus aureus. In words: Minimum concentration required to inhibit growth of methicillin sensitive Staphylococcus aureus strain 446. In kind it is functional.
Assay [4] deals with Staphylococcus aureus. In words: Ability of 40 ug to enlarge the zone of inhibition produced by 100 microg of methicillin in disk assay using Staphylococcus aureus strain 447; No synergy. In kind it is functional, organism-based.
Assay [5] deals with Staphylococcus aureus. In words: Ability of 40 ug to enlarge the zone of inhibition produced by 100 microg of methicillin in disk assay using Staphylococcus aureus strain 447; Synergy. In kind it is functional, organism-based.
In assay [6] the test system is Staphylococcus aureus. In words: Minimum concentration required to inhibit growth of methicillin resistant Staphylococcus aureus strain 447. In kind it is functional.
[7] abbreviates: Staphylococcus aureus, read-out: MIC.

Bounds are passed on as bounds.

With `O=C(N[C@@H](C(=O)N1CCC[C@H]1C(=O)N[C@H](CO)Cc1ccccc1)C(c1ccccc1)c1ccccc1)OCc1ccccc1`, the MSC in assay [1] came to 12.5 µg/mL. Also, the Synergy with methicillin entry in assay [2] is given as “synergy”. Besides, the MIC in assay [3] (setting [7]) was over 100 µg/mL.

Turning to `O=C1N[C@@H](C(c2ccccc2)c2ccccc2)C(=O)N2CCCC2C(=O)NC(CO)(Cc2ccccc2)C(=O)Nc2ccccc21` (single isomer, unassigned; 1a) [listing 1 of 2 here], the Synergy with methicillin result in assay [4] was “No synergy”.

For `O=C1N[C@@H](C(c2ccccc2)c2ccccc2)C(=O)N2CCCC2C(=O)N[C@@](CO)(Cc2ccccc2)C(=O)Nc2ccccc21` (single isomer, unassigned), the MSC in assay [1] is over 128 µg/mL. In addition, in assay [3], the MIC is over 128 µg/mL.

Regarding `O=C1N[C@@H](C(c2ccccc2)c2ccccc2)C(=O)N2CCC[C@@H]2C(=O)NCc2ccccc2-c2ccccc21`, the MSC in assay [1] is over 100 µg/mL. Also, the Synergy with methicillin entry in assay [4] was “No synergy”. In addition, the MIC in assay [3] (setting [7]) was over 100 µg/mL.

As for `O=C1N[C@@H](C(c2ccccc2)c2ccccc2)C(=O)N2CCCC2C(=O)NC(CO)(Cc2ccccc2)C(=O)Nc2ccccc21` (single isomer, unassigned; 1b) [listing 1 of 2 here], in assay [5], the Synergy with methicillin entry is reported as “Synergy”.

On to `O=C1N[C@@H](C(c2ccccc2)c2ccccc2)C(=O)N2CCCC2C(=O)N[C@](CO)(Cc2ccccc2)C(=O)Nc2ccccc21` (single isomer, unassigned), for which the MSC in assay [1] is over 128 µg/mL. This compound had an MIC in assay [6] of over 128 µg/mL. The Synergy with methicillin entry in assay [5] is listed as “Synergy”.

As to `O=C1N[C@@H](C(c2ccccc2)c2ccccc2)C(=O)N2CCCC2C(=O)NC(CO)(Cc2ccccc2)C(=O)Nc2ccccc21` (single isomer, unassigned; 1a) [listing 2 of 2 here], in assay [1], the MSC is over 100 µg/mL. The MIC in assay [6] (setting [7]) is over 100 µg/mL; in assay [3] (setting [7]), over 128 µg/mL.

In the case of `O=C1N[C@@H](C(c2ccccc2)c2ccccc2)C(=O)N2CCCC2C(=O)NC(CO)(Cc2ccccc2)C(=O)Nc2ccccc21` (single isomer, unassigned; 1b) [listing 2 of 2 here], in assay [1], the MSC came to 100 µg/mL. In assay [3] (setting [7]), the MIC was over 100 µg/mL.

(Values after ChEMBL document CHEMBL1130369, “Design, syntheses and potentiating activities against methicillin resistant Staphylococcus aureus of cyclic analogs of LY301621” (1997).)
